pEC50, pIC50: −log10 of the molar value.
What was measured:
[1] = biological target: T1, Thyroid hormone receptor alpha (Homo sapiens, UniProt P10827); assay: TRalpha-Binding Assay and Thyroid Response Element (TRAFalpha1) Reporter Assay.; conditions: pH 7; 4 °C
T1 sequence (P10827 whole entry): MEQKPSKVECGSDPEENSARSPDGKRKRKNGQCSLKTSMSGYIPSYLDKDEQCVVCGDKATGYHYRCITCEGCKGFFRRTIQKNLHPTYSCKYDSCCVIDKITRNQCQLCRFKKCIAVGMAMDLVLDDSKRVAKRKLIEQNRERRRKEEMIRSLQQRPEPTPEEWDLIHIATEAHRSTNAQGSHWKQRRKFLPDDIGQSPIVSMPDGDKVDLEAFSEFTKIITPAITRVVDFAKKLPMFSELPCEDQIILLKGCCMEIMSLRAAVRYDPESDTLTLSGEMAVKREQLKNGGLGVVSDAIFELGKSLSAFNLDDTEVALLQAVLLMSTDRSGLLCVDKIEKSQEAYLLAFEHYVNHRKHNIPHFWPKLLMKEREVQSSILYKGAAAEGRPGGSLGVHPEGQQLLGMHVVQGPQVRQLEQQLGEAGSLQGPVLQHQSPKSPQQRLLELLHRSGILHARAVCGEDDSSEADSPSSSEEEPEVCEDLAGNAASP
Source text: IIC50 is the concentration of each compound required to inhibit 50% binding of 125I-T3 to hTRalpha. EC50 is the concentration of compound required to inhibit 50% of T3-induced TRalpha-activation in CHOK1 cells stably transfected with hTRalpha using alkaline phosphatase reporter assay.

[2] = biological target: T2, Thyroid hormone receptor beta (Homo sapiens, UniProt P10828); assay: TRbeta-Binding Assay and Thyroid Response Element (TRAFbeta1) Reporter Assay.; conditions: pH 7; 4 °C
T2 sequence (P10828 whole entry): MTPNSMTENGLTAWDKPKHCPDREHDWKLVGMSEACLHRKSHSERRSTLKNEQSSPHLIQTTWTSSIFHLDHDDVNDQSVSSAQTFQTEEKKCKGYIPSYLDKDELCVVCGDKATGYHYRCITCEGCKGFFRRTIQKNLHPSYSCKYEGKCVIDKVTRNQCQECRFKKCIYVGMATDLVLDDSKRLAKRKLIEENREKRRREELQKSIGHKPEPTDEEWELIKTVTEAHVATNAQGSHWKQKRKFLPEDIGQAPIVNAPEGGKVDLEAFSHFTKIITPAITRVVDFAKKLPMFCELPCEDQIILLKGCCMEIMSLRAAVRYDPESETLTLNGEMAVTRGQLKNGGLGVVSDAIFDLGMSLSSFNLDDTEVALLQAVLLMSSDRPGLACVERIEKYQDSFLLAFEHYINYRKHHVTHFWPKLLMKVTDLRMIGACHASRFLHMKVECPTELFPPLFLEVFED
Source text: IC50 is the concentration of each compound required to inhibit 50% binding of 125I-T3 to hTRbeta. EC50 is the concentration of compound required to inhibit 50% of T3-induced TRbeta-activation in CHOK1 cells stably transfected with hTRbeta using alkaline phosphatase reporter assay.

Structure (SMILES) | pEC50 [1] | pEC50 [2] | pIC50 [2]
CCC(CC)COc1c(Br)cc(CC(=O)O)cc1Br [2-[3,5-dibromo-4-(2-ethylbutoxy)phenyl]acetic acid] | 9.09 | 9.15 | 
CC(C)CCOc1c(Br)cc(CC(=O)O)cc1Br [2-[3,5-dibromo-4-(3-methylbutoxy)phenyl]acetic acid] |  |  | 5.74
O=C(O)Cc1cc(Br)c(OCC2CCCCC2)c(Br)c1 [2-[3,5-dibromo-4-(cyclohexylmethoxy)phenyl]acetic acid] | 9.38 | 9.28 | 
CCCCCCOc1c(Br)cc(CC(=O)O)cc1Br [2-[3,5-dibromo-4-(hexyloxy)phenyl]acetic acid] | 9.15 | 9.10 | 
CCCCCCOc1c(Br)cc(CCC(=O)O)cc1Br [3-[3,5-dibromo-4-(hexyloxy)phenyl]propanoic acid] | 9.22 | 9.00 | 
O=C(O)CCc1cc(Br)c(OCC2CCCCC2)c(Br)c1 [JMC496635 Compound 9] | 9.28 | 9.92 | 
